Laboratory results published in PubChem BioAssay (NCI).
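Growth conditions: 96-well plates. Treatment: test compound, 48 hours, 5 concentrations. Analysis: linear interpolation between bracketing concentrations; unreached endpoints set to highest concentration. GI50: concentration for 50% inhibition of growth. TGI is the concentration that stops growth completely.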

System: 786-0 renal
Experiment: NCI-60 cell line screen, 48 h

| SMILES | GI50 | TGI |
| --- | --- | --- |
| COc1ccc(-c2nn(-c3cccc(Cl)c3)cc2-c2nc(N)[nH]c(=O)c2C#N)cc1 | 4.65 µM | 33.5 µM |
| COC(=O)C(=O)CC(=O)c1cccc(OC)c1 |  | > 100 µM |
| COc1cc2c3c(n(CCCN(CCO)CCO)c(=O)c2cc1OC)-c1cc2c(cc1C3=O)OCO2 | < 0.01 µM | 0.0646 µM |
| O=C(CCN1CCOCC1)Nc1cccc(-n2cc(-c3ccncc3)c(-c3ccc(Cl)c(O)c3)n2)c1 | 1.9 µM | 4.75 µM |
| C=C(C)[C@@H]1CC[C@]2(C)[C@H](CC[C@@H]3[C@@H]([C@@](C)(O)CCC=C(C)C)CC[C@]32C)[C@@]1(C)CCC(=O)O | 18.7 µM | 36.7 µM |
| Cn1cc(S(=O)(=O)N2CCC3=Cc4c(cnn4-c4ccc(F)cc4)C[C@]3(C(=O)c3cc(C(F)(F)F)ccn3)C2)cn1 | > 100 µM | > 100 µM |
| c1ccc(NCCSc2nc3ccccc3s2)cc1 |  | > 100 µM |
| Oc1ccc(Oc2cnc3ccccc3n2)cc1 | > 100 µM | > 100 µM |
| Cc1ccc2occ/c(=N\Nc3ccccc3)c2c1 |  | > 100 µM |
| CC(=O)NC1CONC1=O (centres undefined) |  | > 100 µM |
| Oc1ccc(N=Nc2nccs2)c(O)c1 | 3.61 µM | 27.7 µM |
| COc1cc(/C=C/C(=O)Oc2ccccc2)ccc1C(=O)O/C=C/c1ccccc1 |  | > 100 µM |
| COc1ccc2c(c1)C(C)Cc1c(ncnc1-n1cnc3ccccc31)N2C (centres undefined) | 0.591 µM | 19.6 µM |
| CC(Cl)CN1c2ccccc2Sc2ccc(Cl)cc21 (centres undefined) |  | > 10 µM |
| NCCCn1c2c(c3ccccc3c1=O)C(=O)c1ccccc1-2 | 0.119 µM | 1.01 µM |
| O=C1c2ccccc2C(=O)c2c(NCCN=Cc3ccccc3O)cccc21 | 6.8 µM | 37.9 µM |

| SMILES | GI50 | TGI |
| --- | --- | --- |
| Oc1ccc(/C=C/c2cc(O)cc3c2C(c2cc(O)cc(O)c2)C(c2ccc(O)c(O)c2)O3)cc1 (centres undefined) |  | > 100 µM |
| COc1ccc(/C=C/c2cnccn2)cc1OC |  | > 10 µM |
| CCc1nc(Cl)c(Cl)c(Cl)n1 |  | > 100 µM |
| O=[N+]([O-])c1ccc(Sc2c3ccccc3nc3ccccc23)cn1 |  | 8.48 µM |
| COc1cc2c3c(n(CCCN(C)CCO)c(=O)c2cc1OC)-c1cc2c(cc1C3=O)OCO2 | 2.92 µM | > 100 µM |
| C=CCn1c(SCC(=O)Nc2ccc(C(=O)/C=C/c3cc(OC)c(OC)c(OC)c3)cc2)nnc1-c1ccc(OC)cc1 | 0.583 µM | 2.61 µM |
| CNC(C)[C@H]1CCC2C3CC=C4C(=O)[C@@H](NC(=O)C=C(C)C)CC[C@]4(C)C3CC[C@@]21C (some centres undefined) | 1.56 µM | 3.16 µM |
| Clc1nc(Cl)c2ncn(Cc3ccccc3Cn3cnc4c(Cl)nc(Cl)nc43)c2n1 | 4.47 µM | 9.57 µM |
| C=C1C(O)C2C(=C(C)C13CC3)C(=O)C(C)(C)C2OC (centres undefined) | > 100 µM | > 100 µM |
| CS(=O)(=O)CS(=O)(=O)OCCCl |  | 514 µM |
| CC(C)(C)c1cc(C(=O)/C=C/c2ccc(C(=O)O)cc2)cc(C(C)(C)C)c1 |  | 13.9 µM |
| COc1ccc(-c2ccc(NNC(=O)c3ccc(F)cc3)nn2)cc1OC | > 100 µM | > 100 µM |
| C=C1C(=O)OC2C1CC(OC(C)=O)/C(C)=C/CCC1(C)OC21 (centres undefined) |  | > 100 µM |
| c1ccc2c(c1)c1ccccc1c1ccccc21 | > 100 µM | > 100 µM |
| NC(=O)CNc1ccc([As]=[As]c2ccc(NCC(N)=O)cc2)cc1 (centres undefined) | 3.21 µM | 14.3 µM |

System: A549 NSCLC
Experiment: NCI-60 cell line screen, 48 h

| SMILES | GI50 | TGI |
| --- | --- | --- |
| COc1ccc(-c2nn(-c3cccc(Cl)c3)cc2-c2nc(N)[nH]c(=O)c2C#N)cc1 | 5.13 µM | 50.8 µM |
| COC(=O)C(=O)CC(=O)c1cccc(OC)c1 |  | > 100 µM |
| COc1cc2c3c(n(CCCN(CCO)CCO)c(=O)c2cc1OC)-c1cc2c(cc1C3=O)OCO2 | 0.155 µM | 13 µM |
| O=C(CCN1CCOCC1)Nc1cccc(-n2cc(-c3ccncc3)c(-c3ccc(Cl)c(O)c3)n2)c1 | 3.75 µM | 16.1 µM |
| C=C(C)[C@@H]1CC[C@]2(C)[C@H](CC[C@@H]3[C@@H]([C@@](C)(O)CCC=C(C)C)CC[C@]32C)[C@@]1(C)CCC(=O)O | 23.3 µM | 91.9 µM |
| Cn1cc(S(=O)(=O)N2CCC3=Cc4c(cnn4-c4ccc(F)cc4)C[C@]3(C(=O)c3cc(C(F)(F)F)ccn3)C2)cn1 | 39.7 µM | > 100 µM |
| c1ccc(NCCSc2nc3ccccc3s2)cc1 |  | > 100 µM |
| Oc1ccc(Oc2cnc3ccccc3n2)cc1 | > 100 µM | > 100 µM |
| Cc1ccc2occ/c(=N\Nc3ccccc3)c2c1 |  | > 100 µM |
| CC(=O)NC1CONC1=O (centres undefined) |  | > 100 µM |
| Oc1ccc(N=Nc2nccs2)c(O)c1 | 5.11 µM | 54.4 µM |
| COc1cc(/C=C/C(=O)Oc2ccccc2)ccc1C(=O)O/C=C/c1ccccc1 |  | > 100 µM |
| COc1ccc2c(c1)C(C)Cc1c(ncnc1-n1cnc3ccccc31)N2C (centres undefined) | 0.642 µM | 16.6 µM |
| CC(Cl)CN1c2ccccc2Sc2ccc(Cl)cc21 (centres undefined) |  | > 10 µM |
| NCCCn1c2c(c3ccccc3c1=O)C(=O)c1ccccc1-2 | 0.0597 µM | 0.815 µM |
| O=C1c2ccccc2C(=O)c2c(NCCN=Cc3ccccc3O)cccc21 | 4.69 µM | 14.4 µM |

| SMILES | GI50 | TGI |
| --- | --- | --- |
| Oc1ccc(/C=C/c2cc(O)cc3c2C(c2cc(O)cc(O)c2)C(c2ccc(O)c(O)c2)O3)cc1 (centres undefined) |  | > 100 µM |
| COc1ccc(/C=C/c2cnccn2)cc1OC |  | > 10 µM |
| CCc1nc(Cl)c(Cl)c(Cl)n1 |  | > 100 µM |
| O=[N+]([O-])c1ccc(Sc2c3ccccc3nc3ccccc23)cn1 |  | > 100 µM |
| COc1cc2c3c(n(CCCN(C)CCO)c(=O)c2cc1OC)-c1cc2c(cc1C3=O)OCO2 | 9.49 µM | > 100 µM |
| C=CCn1c(SCC(=O)Nc2ccc(C(=O)/C=C/c3cc(OC)c(OC)c(OC)c3)cc2)nnc1-c1ccc(OC)cc1 | 0.875 µM | 4.83 µM |
| CNC(C)[C@H]1CCC2C3CC=C4C(=O)[C@@H](NC(=O)C=C(C)C)CC[C@]4(C)C3CC[C@@]21C (some centres undefined) | 2.46 µM | 6.82 µM |
| Clc1nc(Cl)c2ncn(Cc3ccccc3Cn3cnc4c(Cl)nc(Cl)nc43)c2n1 | 6.9 µM | 21.4 µM |
| C=C1C(O)C2C(=C(C)C13CC3)C(=O)C(C)(C)C2OC (centres undefined) | > 100 µM | > 100 µM |
| CS(=O)(=O)CS(=O)(=O)OCCCl |  | 1640 µM |
| CC(C)(C)c1cc(C(=O)/C=C/c2ccc(C(=O)O)cc2)cc(C(C)(C)C)c1 |  | 13.4 µM |
| COc1ccc(-c2ccc(NNC(=O)c3ccc(F)cc3)nn2)cc1OC | 99.5 µM | > 100 µM |
| C=C1C(=O)OC2C1CC(OC(C)=O)/C(C)=C/CCC1(C)OC21 (centres undefined) |  | > 100 µM |
| c1ccc2c(c1)c1ccccc1c1ccccc21 | > 100 µM | > 100 µM |
| NC(=O)CNc1ccc([As]=[As]c2ccc(NCC(N)=O)cc2)cc1 (centres undefined) | 23.5 µM | > 100 µM |

System: EKVX NSCLC
Experiment: NCI-60 cell line screen, 48 h

| SMILES | GI50 | TGI |
| --- | --- | --- |
| COc1ccc(-c2nn(-c3cccc(Cl)c3)cc2-c2nc(N)[nH]c(=O)c2C#N)cc1 | 3.29 µM | 35.4 µM |
| COC(=O)C(=O)CC(=O)c1cccc(OC)c1 |  | > 100 µM |
| COc1cc2c3c(n(CCCN(CCO)CCO)c(=O)c2cc1OC)-c1cc2c(cc1C3=O)OCO2 | 0.887 µM | 13.6 µM |
| O=C(CCN1CCOCC1)Nc1cccc(-n2cc(-c3ccncc3)c(-c3ccc(Cl)c(O)c3)n2)c1 | 3.63 µM | 20.4 µM |
| C=C(C)[C@@H]1CC[C@]2(C)[C@H](CC[C@@H]3[C@@H]([C@@](C)(O)CCC=C(C)C)CC[C@]32C)[C@@]1(C)CCC(=O)O | 24.2 µM | 59.6 µM |
| Cn1cc(S(=O)(=O)N2CCC3=Cc4c(cnn4-c4ccc(F)cc4)C[C@]3(C(=O)c3cc(C(F)(F)F)ccn3)C2)cn1 | 7.98 µM | > 100 µM |
| c1ccc(NCCSc2nc3ccccc3s2)cc1 |  | > 100 µM |
| Oc1ccc(Oc2cnc3ccccc3n2)cc1 | 67 µM | > 100 µM |
| Cc1ccc2occ/c(=N\Nc3ccccc3)c2c1 |  | 98 µM |
| CC(=O)NC1CONC1=O (centres undefined) |  | > 100 µM |
| Oc1ccc(N=Nc2nccs2)c(O)c1 | 2.1 µM | 15.3 µM |
| COc1cc(/C=C/C(=O)Oc2ccccc2)ccc1C(=O)O/C=C/c1ccccc1 |  | > 100 µM |
| COc1ccc2c(c1)C(C)Cc1c(ncnc1-n1cnc3ccccc31)N2C (centres undefined) | 0.632 µM | 20 µM |
